Data set [1] in a line: log D7.4 estimation by HPLC-based method. The format is physicochemical. The protocol: The log D7.4 values were estimated using a common HPLC-based method in accordance with guideline OPPTS 830.7570 of the United States Environmental Protection Agency (EPA). The HPLC measurements were performed with a Phenomenex Luna 5 μm Phenyl-Hexyl 100 Å column (150 × 4.6 mm). […]. Uracil was used to measure the unretained peak time. To obtain a calibration function, the logarithm of the capacity factors for the reference substances was then plotted against the corresponding log P values taken from the mentioned guideline, which are equivalent to the log D7.4 values for non-ionizable compounds like the reference substances used for calibration. With this calibration function, it was possible to estimate the log D7.4 value from the corresponding retention time for each compound to be tested. For the measurement, 2 mg of the reference substances was each dissolved in 1 mL of methanol. A reference mixture was then obtained by combining 50 μL of each reference solution. The reference mixture was measured before and after the substances to be tested. The mean value from both measurements was used for the calibration line. The substances to be tested were injected as a solution in methanol (2 mg/mL), and the retention time was determined as the mean value from two measurements.

Data set [2] can be described thus: Maximum concentration without precipitation in MTT assay buffer. The format is physicochemical. (In general: Tetrazolium dyes change colour on reduction, which living cells bring about.)
Source text: A limitation in the in vitro toxicity testing was the occasional poor water solubility of the analogues.
Data set [3] deals with T1, KV7.2/3 channel (Homo sapiens, UniProt O43525+O43526). Put plainly: KV7.2/3 channel opening assay (thallium-sensitive fluorescence). The format is cell-based. The note with it: for potency relative to flupirtine: KV7.2/3 opening, EC50 compared with flupirtine; for KV7.2/3 channel opening activity (in words): inactive = no channel opening activity detected up to a concentration of 10 μM. The protocol:
To evaluate the biological activity, the synthesized analogues were tested on HEK293 cells overexpressing the KV7.2/3 channel. The measurement was carried out in a fluorescence-based assay in which a thallium-sensitive dye generated the fluorescence signal. Due to its similarity to potassium, thallium can also pass through KV7 channels. The intensity of the fluorescence signal correlates with the amount of intracellular thallium and thus with the ability of the compounds to open KV7 channels. To determine the potency, the fluorescence intensity was measured as a function of the compound concentration. The efficacy was determined relative to the maximum fluorescence signal induced by flupirtine. For a summary of the activity data, see Table 2.
The cell culture of the KV7.2/3 transfected HEK293 cells (HEK293 KCNQ2/3 cells from SB Drug Discovery, Glasgow, UK) used for the assay and the processing of the obtained data were performed as described in earlier work.[27],[29] Briefly, 60,000 cells/well were seeded into 96-well microtiter plates for fluorescence-based assays (4titude Vision Plate Black 96-Well microtiter plates from ThermoScientic) and incubated for 24 h. After incubation, the medium was changed to 200 μL/well loading buffer containing 5 mmol/L probenecid and incubated for 1 h at room temperature. Subsequently, the test compounds dissolved in DMSO were added to the wells to the desired concentrations and further incubated for 30 min. As a control, the loading buffer with a DMSO concentration corresponding to the substance samples (1% (V/V)) was used. Fluorescence measurements were performed on the Infinite F200 Pro plate reader (Tecan) set at […]/emission wavelengths of 485 and 535 nm, respectively. After measuring the background fluorescence (baseline) for 20 s, a stimulus buffer (25 mmol/L K^+, 15 mmol/L Tl^+) was added just before the fluorescence of each well was measured.
The calculations to obtain dose–response curves were performed in the same manner as in previous investigations.[27],[29] Briefly, the fluorescence intensity was normalized with the baseline signal (F/F0) at each time of signal acquisition. To obtain the corrected negative control, a value of 1 was subtracted from the normalized value of the negative control. Subsequently, the value of the corrected negative control was subtracted from the maximum (corr. F/F0) value of a compound in a defined concentration (corr. ΔF/F0) and then plotted against the logarithmic concentration. The EC50 value was calculated as relative values with GraphPad Prism 6 (La Jolla, CA, USA), that is, the inflection points of the sigmoidal curves. The Emax value, the maximum response, indicates the intrinsic activity of a compound. This value was determined relative to flupirtine (1), where the maximum corr. ΔF/F0 value of flupirtine (1) was defined as 100%. The EC50 and Emax value of a compound is the mean of at least three independent experiments ± standard deviation (SD).

For data set [4], the system named is TAMH cells. Put plainly: MTT cell viability assay, TAMH cells. The conditions noted are these: TAMH cells, MTT assay, 24 h exposure; for LD25: 25% reduction of viability; for LD50: 50% reduction of viability. An excerpt:
(§1) In addition to the activity, basic toxicological properties of the newly synthesized compounds were also investigated by using the 3-(4,5-dimethylthiazol-2-yl)-2,5-diphenyltetrazolium bromide (MTT) cell viability assay on mouse TAMH and human HEP-G2 hepatic cell lines (see Table 2). Both cell lines are established for the evaluation of hepatotoxicity.[42],[43]
(§2) The culturing of the mouse liver TAMH and human liver cancer HEP-G2 cell lines and the MTT assay used to evaluate cell viability were carried out as previously described elsewhere in detail.[27],[29] […] The medium in the wells was then replaced with the medium containing the compounds. Control wells contained an equivalent number of cells and 1% (v/v) DMSO. Wells without cells were used to determine the background optical density (OD) and were treated as the control wells. After 24 or 48 h of incubation with the compound, the respective medium was replaced with a fresh medium supplemented with 10% (v/v) of a 2.5 mg/mL solution of MTT. The plates were incubated for 4 h. Then, the culture medium was carefully aspirated off and 50 μL of DMSO was added to each well to dissolve the formazan crystals. The ODs of each well were measured at λ = 570 nm with a SpectraMax 190 microplate reader.
(§3) The calculated T/Ccorr. values were plotted against the log(concentration). The LD50 and LD25 values were determined by using GraphPad Prism 6. […] The values are given as the mean with SD of at least three independent experiments.

Data set [5] relates to HEP-G2 cells. Put plainly: MTT cell viability assay, HEP-G2 cells. The conditions noted are these: HEP-G2 cells, MTT assay, 24 h exposure; for LD25: 25% reduction of viability; for LD50: 50% reduction of viability.
Source text: as §1, §2, §3

On the set-up of data set [6]: method as in guideline OPPTS 830.7570 (EPA). The note with it: reference substances for calibration; log P values; ref guideline OPPTS 830.7570 (EPA); cited from earlier work.
Data set [7] addresses T1, KV7.2/3 channel. The note with it: cited from earlier work.
Data set [8] has as its system TAMH cells. The conditions noted are these: MTT assay, 24 h exposure; cited from earlier work.
Data set [9] has as its system HEP-G2 cells. The conditions noted are these: MTT assay, 24 h exposure; cited from earlier work.
[10] abbreviates: HPLC, Phenomenex Luna 5 μm Phenyl-Hexyl column, pH 7.4, HPLC, calibration A1, read-out: logD7.4.
Where [11] appears, read: HPLC, Phenomenex Luna 5 μm Phenyl-Hexyl column, pH 7.4, HPLC, calibration B1, read-out: logD7.4.
Setting [12] is: HPLC, Phenomenex Luna 5 μm Phenyl-Hexyl column, pH 7.4, HPLC, mean of two calibrations, read-out: logD7.4 (mean).
Where [13] appears, read: HPLC, Phenomenex Luna 5 μm Phenyl-Hexyl column, pH 7.4, estimated by HPLC-based method, pH 7.4, read-out: log D7.4.
Setting [14] is: HEK293 cells overexpressing KV7.2/3, footnote e.

“Also recorded” adds a separate entry of the source. Where two headings read alike, the source gives them in different places. Marks after values point to notes of the source that are not given here.

In general, EC50 refers to the concentration needed to bring the measured effect to its halfway point. Usually melting point stands for the temperature of the solid-liquid transition.

T1 sequence (O43526 whole entry): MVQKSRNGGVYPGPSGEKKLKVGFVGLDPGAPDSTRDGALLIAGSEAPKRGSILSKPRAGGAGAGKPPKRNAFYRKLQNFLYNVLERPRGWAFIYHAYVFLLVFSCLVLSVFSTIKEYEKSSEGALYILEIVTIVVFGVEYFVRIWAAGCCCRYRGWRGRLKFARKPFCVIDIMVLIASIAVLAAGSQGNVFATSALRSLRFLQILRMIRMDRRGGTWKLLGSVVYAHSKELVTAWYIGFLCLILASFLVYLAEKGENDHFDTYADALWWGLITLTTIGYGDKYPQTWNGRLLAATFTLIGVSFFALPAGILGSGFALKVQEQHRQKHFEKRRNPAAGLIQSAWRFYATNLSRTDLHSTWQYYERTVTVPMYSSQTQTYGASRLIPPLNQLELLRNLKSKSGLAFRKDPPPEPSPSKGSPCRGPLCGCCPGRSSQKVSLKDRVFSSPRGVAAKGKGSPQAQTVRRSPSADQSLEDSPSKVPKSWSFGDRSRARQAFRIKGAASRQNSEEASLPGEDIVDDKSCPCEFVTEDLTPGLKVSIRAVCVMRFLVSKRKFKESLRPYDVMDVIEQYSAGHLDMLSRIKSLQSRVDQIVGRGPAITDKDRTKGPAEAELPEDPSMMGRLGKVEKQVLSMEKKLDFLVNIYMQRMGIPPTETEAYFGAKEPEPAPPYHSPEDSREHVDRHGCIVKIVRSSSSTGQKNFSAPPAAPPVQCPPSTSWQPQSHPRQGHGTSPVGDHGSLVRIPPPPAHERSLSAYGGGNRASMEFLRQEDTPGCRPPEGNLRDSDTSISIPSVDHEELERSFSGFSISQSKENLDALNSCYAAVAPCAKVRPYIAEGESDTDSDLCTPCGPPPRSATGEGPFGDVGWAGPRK
T1 sequence (O43525 whole entry): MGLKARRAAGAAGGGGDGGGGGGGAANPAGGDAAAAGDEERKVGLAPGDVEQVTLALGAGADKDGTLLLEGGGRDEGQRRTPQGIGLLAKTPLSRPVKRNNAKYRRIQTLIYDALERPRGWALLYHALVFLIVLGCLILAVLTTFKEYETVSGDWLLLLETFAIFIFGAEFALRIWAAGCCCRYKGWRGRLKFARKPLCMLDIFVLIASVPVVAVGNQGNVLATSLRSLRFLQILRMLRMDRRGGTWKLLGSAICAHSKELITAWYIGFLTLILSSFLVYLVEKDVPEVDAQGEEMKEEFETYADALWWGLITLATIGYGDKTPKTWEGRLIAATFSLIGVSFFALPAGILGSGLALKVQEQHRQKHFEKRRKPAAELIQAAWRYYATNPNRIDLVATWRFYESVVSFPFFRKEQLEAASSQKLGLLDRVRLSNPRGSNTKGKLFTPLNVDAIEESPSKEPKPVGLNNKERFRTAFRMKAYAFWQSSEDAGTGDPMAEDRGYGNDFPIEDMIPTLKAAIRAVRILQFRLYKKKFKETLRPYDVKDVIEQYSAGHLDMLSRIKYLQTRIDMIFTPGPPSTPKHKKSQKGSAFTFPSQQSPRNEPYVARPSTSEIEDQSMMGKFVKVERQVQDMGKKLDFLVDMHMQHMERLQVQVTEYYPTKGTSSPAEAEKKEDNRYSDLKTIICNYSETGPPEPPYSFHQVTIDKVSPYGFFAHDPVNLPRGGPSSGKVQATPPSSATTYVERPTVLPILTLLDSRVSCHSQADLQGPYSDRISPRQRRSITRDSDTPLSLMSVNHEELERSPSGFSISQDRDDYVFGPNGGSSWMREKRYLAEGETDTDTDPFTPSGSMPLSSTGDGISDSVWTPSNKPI

`COc1nc(NCc2ccc(F)cc2)cc(C)c1C(=O)NCc1ccc(F)cc1` [36b, N-(4-Fluorobenzyl)-6-[(4-fluorobenzyl)amino]-2-methoxy-4-methylnicotinamide]: the chromatographic logD is 4.13 in data set [1] (setting [10]), 4.09 in [1] (setting [11]), 4.1 in [1] (setting [12]) and 4.1 in [1] (setting [13]). In addition, the “maximum concentration achieved without precipitating” value in [2] was found to be 63 µM. Moreover, at KV7.2/3 channel [3] (HEK293 cells overexpressing KV7.2/3, concentration for half-maximal channel opening, mean ± SD, ≥3 determinations), a half-maximal response (EC50) required 310 nM. Besides, the efficacy at KV7.2/3 channel [3] (HEK293 cells overexpressing KV7.2/3, relative to maximum signal of flupirtine (=100%)) turned out to be 105 ± 12%. The “potency relative to flupirtine” value on KV7.2/3 channel [3] was “about six times more potent than flupirtine; also recorded: six times as potent as flupirtine”; at KV7.2/3 channel [3] (listed as N-(4-fluorobenzyl)-6-[(4-fluorobenzyl)amino]-2-methoxy-4-methylnicotinamide), “six times as active as flupirtine”. The LD25 in the data set on TAMH cells [4] was over 63 µM; in the data set on HEP-G2 cells [5], over 16 µM. The LD50 in the data set on TAMH cells [4] was over 63 µM; in the data set on HEP-G2 cells [5], over 16 µM.
Take `c1ccc(N(c2ccccc2)c2ccccc2)cc1` [Triphenylamine]: the “logD (Lit.)” value in data set [6] was 5.7.
For the compound `CCOC(=O)Nc1ccc(NCc2ccc(F)cc2)cc1N` [compound 2, retigabine], the EC50 at KV7.2/3 channel [7] (HEK293 cells overexpressing KV7.2/3, mean ± SD) is 147 ± 12 nM. Further, the efficacy on KV7.2/3 channel [7] (HEK293 cells overexpressing KV7.2/3, relative to flupirtine) is recorded as 134 ± 16 ^f %. In addition, the chromatographic logD in data set [1] (pH 7.4, HPLC, calibration C, read-out: logD7.4) is 2.05; in data set [1] (pH 7.4, HPLC, calibration D, read-out: logD7.4), 2.06; in data set [1] (pH 7.4, HPLC, mean of two calibrations, read-out: logD7.4 (mean)), 2.1; in data set [1] (pH 7.4, estimated by HPLC-based method, pH 7.4, read-out: log D7.4), 2.1. The LD50 in the data set with TAMH cells [8] and in the data set with HEP-G2 cells [9] was >400 ^f μM throughout. The LD25 in the data set on HEP-G2 cells [9] was 269 ± 166 ^f μM.
As for `Cc1cc(NCc2ccc(F)cc2)[nH]c(=O)c1C(=O)NCc1ccc(F)cc1` [compound 37, N-(4-Fluorobenzyl)-6-[(4-fluorobenzyl)amino]-4-methyl-2-oxo-1,2-dihydropyridine-3-carboxamide], the melting point is 196 °C.
Regarding `CCCNC(=O)c1ccc(NCc2ccc(F)cc2)cc1CC.Cl` [compound 47, 2-Ethyl-4-[(4-fluorobenzyl)amino]-N-propylbenzamide hydrochloride], the chromatographic logD was 3.24 in [1] (HPLC, Phenomenex Luna 5 μm Phenyl-Hexyl column, pH 7.4, HPLC, calibration C, read-out: logD7.4); 3.23 in [1] (HPLC, Phenomenex Luna 5 μm Phenyl-Hexyl column, pH 7.4, HPLC, calibration D, read-out: logD7.4); 3.2 in data set [1] (setting [12]); 3.2 in data set [1] (setting [13]). In addition, the EC50 on KV7.2/3 channel [3] (setting [14]) was over 10000 nM. Also, the “KV7.2/3 channel opening activity (in words)” value on KV7.2/3 channel [3] is given as “did not result in any improvement in terms of activity”. Besides, the LD50 was over 125 µM in the data set with TAMH cells [4] and 77 ± 15 µM in the data set on HEP-G2 cells [5]. This compound also showed an LD25 in the data set on HEP-G2 cells [5] of 60 ± 9 µM.
Turning to `O=C(Cc1cc(F)cc(F)c1)Nc1ccc(N2CCOCC2)nc1N1CCOCC1` [compound 49], the EC50 at KV7.2/3 channel [7] (KV7.2/3, lead structure from previous work, read-out: EC50) is 11 nM.
For the compound `Cc1cc(N2CCOCC2)nc(N)c1CNC(=O)Cc1cc(F)cc(F)c1` [compound 61, N-[(2-Amino-4-methyl-6-morpholinopyridin-3-yl)methyl]-2-(3,5-difluorophenyl)acetamide], the chromatographic logD in [1] (setting [10]) was 2.57; in data set [1] (setting [11]), 2.58; in [1] (setting [12]), 2.6; in data set [1] (setting [13]), 2.6. On KV7.2/3 channel [3] (setting [14]), the EC50 was over 10000 nM. Moreover, the “KV7.2/3 channel opening activity (in words)” value on KV7.2/3 channel [3] was “inactive”. For the same compound, the LD25 in the data set with TAMH cells [4] and in the data set on HEP-G2 cells [5] was over 63 µM in each case. For the same compound, the LD50 in the data set with TAMH cells [4] and in the data set with HEP-G2 cells [5] was over 63 µM each time.
With `Cc1cc(NCc2ccc(F)cc2)nc(N2CCOCC2)c1CNC(=O)OCC(C)C` [compound 66, Isobutyl ({6-[(4-Fluorobenzyl)amino]-4-methyl-2-morpholinopyridin-3-yl}methyl)carbamate], the chromatographic logD was 4.75 in data set [1] (HPLC, Phenomenex Luna 5 μm Phenyl-Hexyl column, pH 7.4, HPLC, calibration A2, read-out: logD7.4); 4.75 in data set [1] (HPLC, Phenomenex Luna 5 μm Phenyl-Hexyl column, pH 7.4, HPLC, calibration B2, read-out: logD7.4); 4.8 in data set [1] (setting [12]); 4.8 in [1] (setting [13]). Moreover, at KV7.2/3 channel [3] (setting [14]), the EC50 was over 10000 nM. The “KV7.2/3 channel opening activity (in words)” value on KV7.2/3 channel [3] is “inactive”. Also, the figures for the LD25 in the data set on TAMH cells [4] and in the data set with HEP-G2 cells [5] were 52 ± 61 µM and 24 ± 27 µM, respectively. For the same compound, the LD50 in the data set with TAMH cells [4] and in the data set with HEP-G2 cells [5] was over 125 µM throughout.
